Source: a compilation of properties of binary mixtures (doi:10.1021/acs.jced.0c00447)

Assay: xn = mol fraction of the nth substance listed
Settings: 100 kPa

OCC(F)(F)F + CC[n+]1ccn(C)c1.N#C[N-]C#N
x2 = 0
Settings	speed of sound [m/s]	viscosity [mPa·s]
303.15 K	819.3	1.56
313.15 K	792.3	1.23
318.15 K	778.8	1.1
323.15 K	765.1	0.99

CC[n+]1ccn(C)c1.N#C[N-]C#N + OCC(F)(F)F
Settings	speed of sound [m/s]	viscosity [mPa·s]
298.15 K, x1 = 0.1031	1021.8	2.48
298.15 K, x1 = 0.1957	1150.9	3.2
298.15 K, x1 = 0.4905	1463.6	6.07
298.15 K, x1 = 0.5915	1544.5	7.25
298.15 K, x1 = 0.6943	1614.6	8.56
298.15 K, x1 = 0.7956	1673.5	9.95
298.15 K, x1 = 0.8915	1730.2	11.36
298.15 K, x1 = 1	1786.7	13.09
303.15 K, x1 = 0.1957	1137.7	2.81
303.15 K, x1 = 0.2936	1258.6	3.55
303.15 K, x1 = 0.3935	1366.8	4.39
303.15 K, x1 = 0.4905	1450.9	5.29
303.15 K, x1 = 0.6943	1602.2	7.46
303.15 K, x1 = 0.7956	1661.2	8.67
303.15 K, x1 = 0.8915	1717.9	9.91
303.15 K, x1 = 1	1774.6	11.39
308.15 K, x1 = 0.1031	995.3	1.96
308.15 K, x1 = 0.1957	1124.7	2.52
308.15 K, x1 = 0.2936	1245.8	3.17
308.15 K, x1 = 0.3935	1354.2	3.92
308.15 K, x1 = 0.4905	1438.3	4.71
308.15 K, x1 = 0.5915	1519.5	5.61
308.15 K, x1 = 0.6943	1590	6.6
308.15 K, x1 = 0.7956	1649.1	7.66
308.15 K, x1 = 1	1762.5	10
313.15 K, x1 = 0.1031	982.2	1.76
313.15 K, x1 = 0.1957	1111.8	2.27
313.15 K, x1 = 0.2936	1233.1	2.87
313.15 K, x1 = 0.3935	1341.7	3.54
313.15 K, x1 = 0.4905	1425.9	4.25
313.15 K, x1 = 0.5915	1507.3	5.04
313.15 K, x1 = 0.6943	1577.9	5.91
313.15 K, x1 = 0.7956	1637	6.83
313.15 K, x1 = 0.8915	1693.9	7.76
318.15 K, x1 = 0.1031	969.4	1.6
318.15 K, x1 = 0.3935	1329.4	3.23
318.15 K, x1 = 0.4905	1413.7	3.86
318.15 K, x1 = 0.5915	1495.2	4.57
318.15 K, x1 = 0.6943	1565.9	5.34
318.15 K, x1 = 0.7956	1625	6.15
318.15 K, x1 = 0.8915	1682	6.96
318.15 K, x1 = 1	1738.8	7.92
323.15 K, x1 = 0.1031	956.4	1.48
323.15 K, x1 = 0.1957	1086.4	1.93
323.15 K, x1 = 0.2936	1208.1	2.44
323.15 K, x1 = 0.3935	1317.1	2.99
323.15 K, x1 = 0.4905	1401.5	3.57
323.15 K, x1 = 0.5915	1483.2	4.2
323.15 K, x1 = 0.6943	1553.9	4.89
323.15 K, x1 = 0.7956	1613.1	5.6
323.15 K, x1 = 0.8915	1670.2	6.31
323.15 K, x1 = 1	1727.1	7.13
